Results: the supplement of paper PMC10307832

Key:
Test in all cases: relative viability (nuclei count vs DMSO), 5 days (fraction); higher = more cells survive
[1] = compound: CS(=O)(=O)c1ccc(-c2cnc(N)c(C(=O)Nc3ccccc3)n2)cc1 [VE-821] + CC(=O)c1c(C)c2cnc(Nc3ccc(N4CCNCC4)cn3)nc2n(C2CCCC2)c1=O [Palbociclib] (partner 0.5 µM)
Outline: (§1)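 Lung cancer cell lines were pin-tool dosed in 1536-well plates on the day after seeding, with either a lone drug or a fixed anchor-drug dose plus five library-drug doses (not always all listed) in √10 steps. Nuclei were counted on 4× images after 5 days. Relative viability is the ratio of treated-well to vehicle-well nuclei counts, with each value a median of duplicate plates.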

[2] = compound: CS(=O)(=O)c1ccc(-c2cnc(N)c(C(=O)Nc3ccccc3)n2)cc1 [VE-821] + CS(=O)(=O)N1CCN(Cc2cc3nc(-c4cccc5[nH]ncc45)nc(N4CCOCC4)c3s2)CC1 [Pictilisib] (partner 1 µM)
Outline: as §1

[3] = compound: CS(=O)(=O)c1ccc(C(=O)Nc2ccc(Cl)c(-c3ccccn3)c2)c(Cl)c1 [Vismodegib] + CS(=O)(=O)CCNCc1ccc(-c2ccc3ncnc(Nc4ccc(OCc5cccc(F)c5)c(Cl)c4)c3c2)o1 [Lapatinib] (partner 2 µM)
Outline: as §1

[4] = compound: CS(=O)(=O)c1ccc(C(=O)Nc2ccc(Cl)c(-c3ccccn3)c2)c(Cl)c1 [Vismodegib] + O=C(c1cc(Cc2n[nH]c(=O)c3ccccc23)ccc1F)N1CCN(C(=O)C2CC2)CC1 [Olaparib] (partner 8 µM)
Outline: as §1

Cell Line	relative viability ([1]; first compound 0.08 µM)	relative viability ([1]; first compound 0.253 µM)	relative viability ([1]; first compound 0.8 µM)	relative viability ([1]; first compound 2.53 µM)	relative viability ([1]; first compound 8 µM)	relative viability ([2]; first compound 0.08 µM)	relative viability ([2]; first compound 0.253 µM)	relative viability ([2]; first compound 0.8 µM)	relative viability ([2]; first compound 2.53 µM)	relative viability ([2]; first compound 8 µM)	relative viability ([3]; first compound 0.08 µM)	relative viability ([3]; first compound 0.253 µM)	relative viability ([3]; first compound 0.8 µM)	relative viability ([3]; first compound 2.53 µM)	relative viability ([3]; first compound 8 µM)	relative viability ([4]; first compound 0.08 µM)	relative viability ([4]; first compound 0.253 µM)	relative viability ([4]; first compound 0.8 µM)	relative viability ([4]; first compound 2.53 µM)	relative viability ([4]; first compound 8 µM)
PC-3 [JPC-3]	0.266	0.478	0.58	0.54	0.56	0.784	0.797	0.851	0.938	0.763	0.486	0.467	0.394	0.447	0.475	1.09	1.11	1.03	1.09	1.17
NCI-H1355	0.455	0.349	0.287	0.366	0.361	0.431	0.458	0.411	0.476	0.32	0.93	0.923	0.844	0.951	0.957	0.721	0.716	0.781	0.807	0.722
NCI-H1792	0.725	0.698	0.664	0.762	0.66	0.274	0.393	0.281	0.319	0.271	0.851	0.97	0.872	0.79	0.878	0.381	0.412	0.527	0.349	0.376
NCI-H838	0.222	0.186	0.218	0.266	0.191	0.436	0.359	0.496	0.561	0.557	0.888	1.01	0.987	0.99	1.09	0.791	0.71	0.777	0.757	0.778
